Columns and labels:
[1] = target: T1, human MCH receptor 1 (MCHR1) (Homo sapiens, UniProt Q99705); assay: Human MCH receptor 1 (MCHR1) competitive inhibitory activity using binding assay; details: test compound 0.1 μM; [125I]-MCH (4-19); human MCHR1-expressing CHO cellular membrane fraction; read-out: Binding inhibition rate % (0.1 μM)
T1 construct: expressed in transfected cells; host or cells: CHO cell clone 57 (described in WO01/82925); membrane fraction
Experimental: Determination of Human MCH Receptor 1 (MCHR1) Competitive Inhibitory Activity of Test Compound Using Binding Assay
1. Preparation of Membrane Fraction
In phosphate buffered saline (pH 7.4) supplemented with 5 mM EDTA (ethylenediaminetetraacetic acid) were respectively suspended human MCHR1-expressing CHO cells (1×10^8 cells) and centrifuged. Homogenate buffer (10 mL, 10 mM NaHCO3, 5 mM EDTA, pH 7.5, 0.5 mM PMSF (phenylmethylsulfonyl fluoride), 20 mg/L leupeptin, 4 mg/L E-64, 1 mg/L pepstatin A) was added to the pellets of the cells and, using Polytron Homogenizer, the mixture was homogenated. The supernatant obtained after centrifugation at 400×g for 10 min was further centrifuged at 100,000×g for 1 hr to give precipitate of the membrane fraction. The precipitate was suspended in 2 mL of assay buffer [20 mM Tris-HCl (pH 7.5), 5 mM EDTA, 0.5 mM PMSF, 20 mg/L leupeptin, 4 mg/L E-64, 1 mg/L pepstatin A]. The membrane fractions were suspended in assay buffer to a protein concentration of 2 mg/mL, and after dispensing, preserved at −80° C. and used upon thawing each time when in use.
The MCHR1 ligand binding inhibitory activity of the test compound was determined as follows.
The mixture was reacted with stirring at room temperature for 1 hr, and the plate was set on FilterMate Harvester (PerkinElmer). […] The glass filter plate was dried, MicroScint 0 (PerkinElmer) was added at 25 μL/well, and the resulting radioactivity was measured by TopCount liquid scintillation counter (PerkinElmer). The binding inhibition rate of the test compound was calculated by the following formula. Binding inhibition(%)=100−(radioactivity upon addition of test compound and hot MCH−radioactivity upon addition of cold MCH and hot MCH solution)/(radioactivity upon addition of DMSO solution and hot MCH−radioactivity upon addition of cold MCH and hot MCH solution)×100

[2] = tested on: male diet-induced obese F344/Jcl rats; assay: Anorectic effect using male diet-induced obese F344/Jcl rats; assay type: in vivo, rat; details: oral, 5 mg/mL suspension in 0.5% methylcellulose at 2 mL/kg, two administrations; food intake for 2 days vs control group
Experimental: Evaluation of Anorectic Effect Using Male Diet-Induced Obese F344/Jcl Rats
Male diet-induced obese F344/Jcl rats (41-52 weeks old) fed with a high-fat diet (D12451: Research Diets) from 5 weeks old were used. From before the start of experiment, the rats were singly housed, given a powder high-fat diet (D12451M: Research Diets), and habituated to oral administration with tap water. The food intake from the evening of the day before the start of experiment to the next morning was measured, and the rats were grouped based on both the food intake and the body weight of the previous day. In the evening of the day of the start of experiment and the next day, 0.5% methylcellulose solution was orally administered to the control group, and 0.5% methylcellulose suspension of the test compound (5 mg/mL) was orally administered to the compound administration group at 2 mL/kg (6 per group for both control group and compound administration group). The food intake for 2 days from the initial administration was measured. The food intake inhibition rate of each compound administration group to the control group was calculated.

human MCHR1 = target: T2, human MCHR1 (Homo sapiens, UniProt Q99705); assay: MCH receptor 1 antagonistic activity using Ca2+ mobilization assay; assay type: cell-based; details: test compound 0.1 μM; ligand MCH (4-19) 2 nM; human MCHR1-expressing CHO cells (clone #4); read-out: Inhibition rate % (0.1 μM)
T2 construct: expressed in transfected cells; host or cells: CHO dhfr- cells, clone #4
T2 sequence (Q99705 whole entry): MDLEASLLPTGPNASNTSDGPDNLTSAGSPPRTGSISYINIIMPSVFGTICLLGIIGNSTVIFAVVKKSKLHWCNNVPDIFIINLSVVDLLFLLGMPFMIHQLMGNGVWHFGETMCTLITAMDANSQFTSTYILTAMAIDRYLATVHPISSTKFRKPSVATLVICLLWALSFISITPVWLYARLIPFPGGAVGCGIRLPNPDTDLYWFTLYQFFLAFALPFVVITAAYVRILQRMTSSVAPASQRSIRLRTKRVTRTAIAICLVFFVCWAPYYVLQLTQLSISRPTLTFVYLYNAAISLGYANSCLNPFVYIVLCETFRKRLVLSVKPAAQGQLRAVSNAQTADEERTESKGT
Experimental: Measurement of MCH Receptor 1 Antagonistic Activity of Test Compound Using Ca^2+ Mobilization Assay
Using an expression vector plasmid introduced with human MCHR1 gene for expression in animal cells, human MCHR1 gene was introduced into CHO cells (CHO dhfr^−) by Lipofectamine LTX (Invitrogen). The cells were cultured in selection MEMα medium [445 mL of MEMα medium without nucleic acid and added with 5 mL of Penicillin-Streptomycin (Invitrogen) and 50 mL of dialyzed fetal bovine serum]. Colony 24 clones grown in the selection medium, which were human MCHR1 gene-expressing CHO cell candidates, were selected. […] An integrated dispensing function fluorometer (CellLux, PerkinElmer) was used for Ca^2+ mobilization assay. […] The medium was removed, and the cells were washed with phosphate buffered saline (PBS). A Ca^2+ indicator dye reagent (DOJINDO LABORATORIES, Ca screening no-wash kit Fluo4) was added at 100 μL/well, and the dye was allowed to penetrate into the cells for 30 min in an incubator at 5% CO2, 37° C. The plate was set on a plate reader. First, a test compound solution diluted with an assay buffer [10 mM HEPES (pH 7.4), 1× assay buffer containing 0.1% BSA (DOJINDO LABORATORIES, attached to Ca screening no-wash kit Fluo4)] or DMSO solution was added at 50 μL/well, and then ligand MCH (4-19) peptide (final concentration 2 nM) diluted with assay buffer or DMSO was added at 50 μL/well, during which changes in intracellular fluorescence were measured at 2 second intervals.

hERG = hERG (Homo sapiens, UniProt Q12809); assay: hERG activity measurement by IonWorks Quattro; assay type: cell-based; details: 5 minutes exposure, hERG stably expressed in CHO cells (CYL3038)
hERG, sequence (Q12809 whole entry): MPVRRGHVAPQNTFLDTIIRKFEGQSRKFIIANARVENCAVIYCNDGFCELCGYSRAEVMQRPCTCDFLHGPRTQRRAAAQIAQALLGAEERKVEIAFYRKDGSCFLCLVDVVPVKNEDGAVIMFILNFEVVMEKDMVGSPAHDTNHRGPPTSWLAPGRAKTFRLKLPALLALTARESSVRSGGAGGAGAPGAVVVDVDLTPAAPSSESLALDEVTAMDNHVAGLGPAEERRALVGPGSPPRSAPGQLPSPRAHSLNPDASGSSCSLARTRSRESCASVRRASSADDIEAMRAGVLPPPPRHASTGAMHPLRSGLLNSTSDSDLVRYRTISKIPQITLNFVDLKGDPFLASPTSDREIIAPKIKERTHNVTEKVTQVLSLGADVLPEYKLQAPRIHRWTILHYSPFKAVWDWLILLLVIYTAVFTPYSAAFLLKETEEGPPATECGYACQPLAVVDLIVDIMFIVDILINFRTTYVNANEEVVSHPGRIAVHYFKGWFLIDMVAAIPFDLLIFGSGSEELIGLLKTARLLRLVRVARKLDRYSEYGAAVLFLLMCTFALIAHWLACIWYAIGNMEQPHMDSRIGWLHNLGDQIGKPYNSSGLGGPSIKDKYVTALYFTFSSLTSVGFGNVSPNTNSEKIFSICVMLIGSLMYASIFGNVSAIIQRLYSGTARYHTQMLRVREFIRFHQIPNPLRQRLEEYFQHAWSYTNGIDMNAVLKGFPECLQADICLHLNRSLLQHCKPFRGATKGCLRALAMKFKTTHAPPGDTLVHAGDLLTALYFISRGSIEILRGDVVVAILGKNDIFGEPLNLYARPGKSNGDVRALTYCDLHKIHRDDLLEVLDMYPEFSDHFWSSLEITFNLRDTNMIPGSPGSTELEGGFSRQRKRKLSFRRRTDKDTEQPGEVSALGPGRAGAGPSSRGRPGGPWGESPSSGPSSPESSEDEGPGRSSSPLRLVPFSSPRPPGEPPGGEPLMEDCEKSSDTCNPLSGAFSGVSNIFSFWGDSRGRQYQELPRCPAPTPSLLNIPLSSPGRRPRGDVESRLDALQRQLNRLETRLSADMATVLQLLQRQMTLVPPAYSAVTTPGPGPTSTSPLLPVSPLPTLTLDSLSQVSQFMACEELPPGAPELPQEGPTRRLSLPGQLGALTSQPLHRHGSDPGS

T1 sequence (Q99705 whole entry): as the sequence (Q99705 whole entry) above

| Compound | inhibition at 0.1 µM [1] [%] | inhibition at 0.1 µM (human MCHR1) [%] | Food intake suppression rate (%) [2] [%] | % hERG inhibition (10 μM) (hERG) [%] |
| --- | --- | --- | --- | --- |
| Cc1c2cc(-n3ccc(OCc4ccc(F)cc4)cc3=O)ccc2nn1C1CC1 [Example 6, 1-(2-cyclopropyl-3-methyl-2H-indazol-5-yl)-4-[(4-fluorobenzyl)oxy]pyridin-2(1H)-one] | 72 | 70 | 26.4 | – |
| Cc1c2cc(-n3ccc(OCc4ccc(Cl)cc4)cc3=O)ccc2nn1C [Example 1, 4-[(4-chlorobenzyl)oxy]-1-(2,3-dimethyl-2H-indazol-5-yl)pyridin-2(1H)-one] | 72 | 83 | 32.1 | 22.1 |
| Cc1c2cc(-n3ccc(OCc4csc(C(F)(F)F)c4)cc3=O)ccc2nn1C [Example 22, 1-(2,3-dimethyl-2H-indazol-5-yl)-4-{[5-(trifluoromethyl)thiophen-3-yl]methoxy}pyridin-2(1H)-one] | 51 | 69 | 50.7 | – |
| Cc1c2cc(-n3ccc(OCc4csc(C(F)(F)F)c4)cc3=O)ccc2nn1C1CC1 [Example 44, 1-(2-cyclopropyl-3-methyl-2H-indazol-5-yl)-4-{[5-(trifluoromethyl)thiophen-3-yl]methoxy}pyridin-2(1H)-one] | 77 | 55 | 30.6 | – |

Now from value to compound, other results behind:

| inhibition at 0.1 µM [1] [%] | inhibition at 0.1 µM (human MCHR1) [%] | Compound | Food intake suppression rate (%) [2] [%] | % hERG inhibition (10 μM) (hERG) [%] |
| --- | --- | --- | --- | --- |
| 57 | 84 | Cc1c2cc(-n3ccc(OCc4ccc(Br)cc4)cc3=O)ccc2nn1C [Example 25, 4-[(4-bromobenzyl)oxy]-1-(2,3-dimethyl-2H-indazol-5-yl)pyridin-2(1H)-one] | 59.8 | – |
| 50 | 78 | Cc1c2cc(-n3ccc(OCc4csc(C(F)(F)F)n4)cc3=O)ccc2nn1C1CC1 [Example 46, 1-(2-cyclopropyl-3-methyl-2H-indazol-5-yl)-4-{[2-(trifluoromethyl)-1,3-thiazol-4-yl]methoxy}pyridin-2(1H)-one] | 13.3 | – |
